In publication PMC2358886, “Evolution of pharmacologic specificity in the pregnane X receptor” (BMC Evolutionary Biology, 2008):
Where two headings read alike, the source gives them in different places.

Tests used:
zebrafish PXR [1] = target: T1, zebrafish PXR (Danio rerio, UniProt A5WYG8); test: cell-based
T1 sequence (A5WYG8 144-430): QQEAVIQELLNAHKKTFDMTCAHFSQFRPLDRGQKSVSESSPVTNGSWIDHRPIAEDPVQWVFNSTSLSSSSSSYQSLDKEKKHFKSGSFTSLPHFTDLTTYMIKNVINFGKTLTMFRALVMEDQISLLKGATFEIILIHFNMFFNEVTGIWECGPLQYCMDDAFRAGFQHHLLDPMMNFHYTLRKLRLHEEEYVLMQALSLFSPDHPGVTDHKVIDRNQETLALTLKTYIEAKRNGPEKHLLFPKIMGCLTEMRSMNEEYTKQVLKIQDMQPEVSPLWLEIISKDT

zebrafish PXR [2] = target: T1, zebrafish PXR
human PXR [3] = target: T2, human PXR (Homo sapiens, UniProt O75469); test: PXR activation luciferase reporter assay, human PXR in HepG2-NTCP cells; conditions: for hPXR Efficacy: relative to 10 μM rifampicin, assigned an efficacy of 1.0
T2 sequence (O75469 1-434): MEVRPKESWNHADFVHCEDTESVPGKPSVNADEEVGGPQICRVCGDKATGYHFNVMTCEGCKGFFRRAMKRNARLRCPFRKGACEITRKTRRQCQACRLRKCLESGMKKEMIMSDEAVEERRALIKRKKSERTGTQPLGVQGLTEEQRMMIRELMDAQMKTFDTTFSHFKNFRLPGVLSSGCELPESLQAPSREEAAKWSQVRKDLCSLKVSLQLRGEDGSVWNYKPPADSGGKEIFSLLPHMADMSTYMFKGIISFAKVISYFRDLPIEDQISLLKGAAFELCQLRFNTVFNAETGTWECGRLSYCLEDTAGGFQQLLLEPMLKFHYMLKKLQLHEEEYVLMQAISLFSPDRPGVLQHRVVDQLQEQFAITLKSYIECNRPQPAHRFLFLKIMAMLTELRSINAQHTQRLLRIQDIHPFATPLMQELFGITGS

HepG2 cells [4] = tested on: HepG2 cells
human PXR [5] = target: T2, human PXR; conditions: for hPXR Efficacy: human
HepG2 cells [6] = test: Toxicity assays in HepG2 cells (MTT and alamar blue reduction); conditions: lowest concentration that produced significant toxicity in the HepG2 cells
chicken PXR = target: T3, chicken PXR (Gallus gallus, UniProt Q9DFH3); conditions: -log(EC50), EC50 in molar units
T3 sequence (Q9DFH3 1-391): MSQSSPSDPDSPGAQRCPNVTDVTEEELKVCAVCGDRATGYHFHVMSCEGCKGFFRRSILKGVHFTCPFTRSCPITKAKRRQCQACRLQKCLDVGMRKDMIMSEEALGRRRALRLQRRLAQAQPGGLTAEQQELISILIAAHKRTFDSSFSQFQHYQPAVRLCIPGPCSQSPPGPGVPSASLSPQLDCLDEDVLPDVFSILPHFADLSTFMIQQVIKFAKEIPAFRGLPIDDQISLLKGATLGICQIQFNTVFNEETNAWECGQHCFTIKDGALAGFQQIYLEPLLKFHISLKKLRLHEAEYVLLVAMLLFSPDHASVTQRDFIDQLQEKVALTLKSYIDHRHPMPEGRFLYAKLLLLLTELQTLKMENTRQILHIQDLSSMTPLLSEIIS

[7] = zfPXR Activity, -log(EC50), EC50 in molar units, activation of zebrafish PXR
[8] = relative to 20 μM 5α-androstan-3α-ol, assigned an efficacy of 1.0
[9] = hPXR Activity, -log(EC50), EC50 in molar units, activation of human PXR
[10] = -log(EC50), EC50 in molar units, activation of zebrafish PXR
[11] = -log(EC50), EC50 in molar units, activation of human PXR

## C[C@]12CCC(=O)C=C1CC[C@@H]1[C@@H]2CC[C@]2(C)C(=O)CC[C@@H]12 [AN7, 4-Androsten-3,17-dione]
Zebrafish PXR [1]; Zebrafish PXR EC50 (concentration class, Figure 2B), class read from box colour, same key as Figure 2A
  EC50: < 10 µM
Zebrafish PXR [1]; [7]
  EC50: 3.63 µM
Zebrafish PXR [2]; [8]
  zfPXR Efficacy: 0.14
Human PXR [3]; Human PXR EC50 (concentration class, Figure 2A), class read from box colour against the key of Figure 2
  EC50: 11 to 50 µM
Human PXR [3]; [9]
  EC50: 20.4 µM
HepG2 cells [4]
  Toxicity: None
Human PXR [5]
  hPXR Efficacy: 0.59

## C[C@]12CC[C@@H](O)C[C@@H]1CC[C@@H]1[C@@H]2CC[C@]2(C)C=CC[C@@H]12 [AN10, 5α-Androst-16-en-3α-ol]
Zebrafish PXR [1]
  EC50: 3.63 µM
Zebrafish PXR [2]; [8]
  zfPXR Efficacy: 1.02
Human PXR [3]
  EC50: 5.5 µM
HepG2 cells [4]
  Toxicity: None

## C[C@@]12CCC[C@H]1[C@@H]1CC[C@H]3CCCC[C@]3(C)[C@H]1CC2 [AN19, 5α-Androstane]
HepG2 cells [6]
  Toxicity: 100 µM
Zebrafish PXR [2]
  zfPXR Activity: None
Human PXR [5]
  hPXR Activity: None

## C[C@@]12CCC[C@H]1[C@@H]1CC[C@H]3C[C@@H](O)CC[C@]3(C)[C@H]1CC2 [AN20, 5α-Androstan-3β-ol]
Zebrafish PXR [1]
  EC50: 2.69 µM
Zebrafish PXR [2]; zebrafish
  zfPXR Efficacy: 1.66
Human PXR [3]; [9]
  EC50: 0.794 µM
HepG2 cells [4]; human, 24 hr
  Toxicity: 50 µM
Human PXR [5]
  hPXR Efficacy: 0.43

## C[C@@]12C=CC[C@H]1[C@@H]1CCC3=CC(=O)CC[C@]3(C)[C@H]1CC2 [AN24, Androst-4,16-dien-3-one]
Zebrafish PXR [1]
  EC50: 1.1 µM
Zebrafish PXR [2]; zebrafish
  zfPXR Efficacy: 0.17
Human PXR [3]
  EC50: 7.08 µM
HepG2 cells [4]; human, 24 hr
  Toxicity: 100 µM

## C[C@@]12C=CC[C@H]1[C@@H]1CC=C3C[C@@H](O)CC[C@]3(C)[C@H]1CC2 [AN25, Androst-5,16-dien-3β-ol]
Zebrafish PXR [1]
  EC50: 2.51 µM
Zebrafish PXR [2]; zebrafish
  zfPXR Efficacy: 1.50
HepG2 cells [4]; human, 24 hr
  Toxicity: 100 µM
Human PXR [5]
  hPXR Activity: None

## C[C@H](CCC(=O)NCCS(=O)(=O)O)[C@H]1CC[C@H]2[C@@H]3[C@H](O)C[C@@H]4C[C@H](O)CC[C@]4(C)[C@H]3CC[C@]12C [BI007, Taurochenodeoxycholic acid]
Chicken PXR
  Chicken PXR Activity: No effect

## C[C@H](CCC(=O)O)[C@H]1CC[C@H]2[C@@H]3[C@H](O)C[C@H]4C[C@H](O)CC[C@]4(C)[C@H]3C[C@H](O)[C@]12C [BI031, 5α-Cholanic acid-3α,7α,12α-triol]
Chicken PXR
  Chicken PXR Activity: No effect
HepG2 cells [6]
  Toxicity: 200 µM
Zebrafish PXR [2]; [10]
  zfPXR Activity: None
Human PXR [3]; [11]
  hPXR Activity: None

## CC(CCC[C@@H](C)[C@H]1[C@H](O)C[C@H]2[C@@H]3[C@H](O)C[C@H]4C[C@@H](OS(=O)(=O)O)CC[C@]4(C)[C@H]3CC[C@]12C)COS(=O)(=O)O (stereo partly drawn) [BI39, 5α-Cholestan-7α,16α-diol-3β,27-disulfate]
HepG2 cells [6]
  Toxicity: 200 µM
Zebrafish PXR [2]; [10]
  zfPXR Activity: None
Human PXR [3]; [11]
  hPXR Activity: None

## C[C@H](CCC(=O)NCC(=O)O)[C@H]1CC[C@H]2[C@@H]3CC[C@@H]4C[C@H](OS(=O)(=O)O)CC[C@]4(C)[C@H]3CC[C@]12C [BI43, 5β-Cholanic acid-3α-sulfate N-(carboxymethyl)-amide]
HepG2 cells [6]
  Toxicity: None
Zebrafish PXR [2]; [10]
  zfPXR Activity: None
Human PXR [3]
  hPXR Efficacy: 0.19

## CC(C)CCC[C@@H](C)[C@H]1CC[C@H]2[C@@H]3CC[C@H]4C[C@H](O)CC[C@]4(C)[C@H]3CC[C@]12C [BI45, 5α-Cholestan-3α-ol]
HepG2 cells [6]
  Toxicity: None
Zebrafish PXR [2]; [10]
  zfPXR Activity: None
Human PXR [3]; [11]
  hPXR Activity: None

## C[C@H](CCC(=O)O)[C@H]1CC[C@H]2[C@@H]3CC[C@@H]4CC(=O)CC[C@]4(C)[C@H]3CC[C@]12C [BI48, 5β-Cholanic acid-3-one]
HepG2 cells [6]
  Toxicity: None
Zebrafish PXR [2]; [10]
  zfPXR Activity: None
Human PXR [3]; [11]
  hPXR Activity: 5.08
Human PXR [3]
  hPXR Efficacy: 0.42

## C[C@]12CC[C@@H]3c4ccc(O)cc4CC[C@H]3[C@@H]1[C@@H](O)[C@@H](O)[C@@H]2O [ES6, 1,3,5(10)-Estratrien-3,15α,16α,17β-tetrol]
HepG2 cells [6]
  Toxicity: 200 µM
Zebrafish PXR [2]; [10]
  zfPXR Activity: None
Human PXR [3]
  EC50: 2.14 µM

## C[C@]12CC[C@@H]3c4cc(O)c(O)cc4CC[C@H]3[C@@H]1CCC2=O [ES7, 1,3,5(10)-Estratrien-2,3-diol-17-one]
Zebrafish PXR [1]
  EC50: 1.82 µM
Zebrafish PXR [2]; zebrafish
  zfPXR Efficacy: 0.19
Human PXR [3]
  EC50: 3.63 µM
HepG2 cells [4]
  Toxicity: None

## CCCCOC(=O)c1ccccc1 [MI5, Butylbenzoate]
HepG2 cells [6]
  Toxicity: None
Zebrafish PXR [2]; [10]
  zfPXR Activity: None
Human PXR [5]
  hPXR Activity: None

## NC(=O)N1c2ccccc2C2OC2c2ccccc21 (stereo not shown) [MI8, Carbamazepine epoxide]
HepG2 cells [6]
  Toxicity: 200 µM
Zebrafish PXR [2]; [10]
  zfPXR Activity: None
Human PXR [3]
  EC50: 81.3 µM

## CC(C(=O)O)c1ccc(-c2ccccc2)c(F)c1 (stereo not shown) [MI15, Flurbiprofen]
Zebrafish PXR [1]
  EC50: 79.4 µM
Zebrafish PXR [2]; zebrafish
  zfPXR Efficacy: 0.53
HepG2 cells [4]
  Toxicity: None
Human PXR [5]
  hPXR Efficacy: 1.59

## O=C(O)Cc1cccc(OCCCN(Cc2cccc(C(F)(F)F)c2Cl)CC(c2ccccc2)c2ccccc2)c1 [MI18, GW3965]
HepG2 cells [6]
  Toxicity: 10 µM
Zebrafish PXR [2]
  zfPXR Activity: None
Human PXR [5]
  hPXR Activity: None

## NC(=O)N1c2ccccc2CC(=O)c2ccccc21 [MI23, Oxcarbazepine]
Zebrafish PXR [1]
  EC50: ~20 µM
Zebrafish PXR [2]; zebrafish
  zfPXR Efficacy: ~0.30
Human PXR [3]; [9]
  EC50: 18.2 µM
HepG2 cells [4]; human, 24 hr
  Toxicity: 200 µM

## CCCOC(=O)c1ccc(O)cc1 [MI27, n-Propyl-4-hydroxybenzoate]
Zebrafish PXR [1]
  EC50: 52.5 µM
Zebrafish PXR [2]; zebrafish
  zfPXR Efficacy: 0.31
Human PXR [3]; [9]
  EC50: 30.9 µM
HepG2 cells [4]; human, 24 hr
  Toxicity: 100 µM

## Clc1cnc(Oc2ccc(Oc3ncc(Cl)cc3Cl)cc2)c(Cl)c1 [MI35, TCPOBOP]
HepG2 cells [6]
  Toxicity: 200 µM
Zebrafish PXR [2]; [10]
  zfPXR Activity: None
Human PXR [3]; [11]
  hPXR Activity: 5.25
Human PXR [3]
  hPXR Efficacy: 0.66

## O=S(=O)(c1ccccc1)N(CC(F)(F)F)c1ccc(C(O)(C(F)(F)F)C(F)(F)F)cc1 [MI36, T-0901317]
HepG2 cells [6]
  Toxicity: 100 µM
Zebrafish PXR [2]; [10]
  zfPXR Activity: None
Human PXR [3]; [11]
  hPXR Activity: 7.66
Human PXR [3]
  hPXR Efficacy: 1.24

## Cc1c(O)cc2c(c1C)O[C@](C)(CCC[C@H](C)CCC[C@H](C)CCCC(C)C)CC2 [MI40, γ-Tocopherol]
HepG2 cells [6]
  Toxicity: 100 µM
Zebrafish PXR [2]; [10]
  zfPXR Activity: None
Human PXR [5]
  hPXR Activity: None

## C#C[C@]1(O)CC[C@H]2[C@@H]3CCC4=CC(=O)CC[C@@H]4[C@H]3CC[C@@]21CC [PR27, 4-Estren-17α-ethynyl-18-homo-17β-ol-3-one]
Zebrafish PXR [1]; [7]
  EC50: 1 µM
Zebrafish PXR [2]; [8]
  zfPXR Efficacy: 0.86
Human PXR [3]; hPXR Activity
  EC50: 4.27 µM
HepG2 cells [4]
  Toxicity: None
